Columns and labels:
[1] = target: T1, CB1 receptor (HEK293 CB1 β-arrestin cells) (Homo sapiens, UniProt P21554); assay: PathHunter β-Arrestin assay, enhancement of anandamide stimulation; type: cell-based; conditions: maximum % increase in stimulation caused by anandamide; for Potency % Enhancement 1000 nM: 1000 nM test compound; for Potency % Enhancement 300 nM: 300 nM test compound; for Potency % Enhancement 100 nM: 100 nM test compound
T1 construct: host or cells: HEK293 CB1 β-arrestin cells (PathHunter)
Text: PathHunter™ β-Arrestin Assays
β-Arrestins are multifunctional intracellular proteins that interact with a structurally diverse group of cell surface receptors including GPCRs, to regulate cellular functions (see, e.g., Violin and Lefkowitz, 2007).
PathHunter™ enzyme fragment complementation is the most important method to measure β-arrestin recruitment. PathHunter™ β-Arrestin assays developed by DiscoveRX are revolutionary high-throughput screening assays for monitoring GPCR activation following ligand stimulation, without an imaging instrument, fluorescent protein tag, or radioactivity.
Instead, the assays detect GPCR activation through binding of β-arrestin to the expressed GPCR of interest, and measure the interaction of the two proteins using enzyme fragment complementation (EFC). The EFC approach offers a range of benefits for screening; including signal amplification and robust performance.
The larger portion of β-gal, termed EA for enzyme acceptor, is fused to the C-terminus of β-arrestin. The smaller, complementing fragment of β-gal, the ProLink™ tag, is expressed as a fusion protein with the GPCR of interest at the C-terminus. Upon activation, the GPCR is bound by β-arrestin. The interaction of β-arrestin and the GPCR forces the interaction of ProLink and EA, thus allowing complementation of the two fragments of β-gal and the formation of a functional enzyme capable of hydrolyzing substrate and generating a […] signal.
Using the PathHunter™ CB1 kit from DiscoveRX, a cannabinoid CB1 receptor agonist is added and activates the receptor, EA, which is fused to the C-terminus of β-arrestin, and then interacts with the ProLink™ tag which is fused to the CB1 receptor. This will result in the […] signal that is recorded by a luminescence plate reader. The […] signal is directly related to the activation of the receptor, therefore a higher concentration of agonist will yield a larger […] signal. The cannabinoid agonist is added in increasing concentrations to obtain an agonist dose response curve. With pre-incubation of a potential allosteric modulator, either an enhancement of agonist signalling with an allosteric enhancer or a decrease in the maximal response of the agonist with an allosteric inhibitor is expected.
All raw data are obtained as luminescence (relative light units), and are normalised and presented as a percentage of the maximal response for the endogenous cannabinoid CB1 receptor agonist anandamide (N-arachidonoylethanolamine).
The PathHunter™ β-Arrestin assay (from DiscoveRX, Fremont, USA) was performed as follows. HEK293 CB1 β-arrestin cells were plated 48 hours before use and incubated at 37° C., 5% CO2 in a humidified incubator. Test compounds were dissolved in dimethylsulfoxide (DMSO) and diluted in optimized cell culture media (OCC, as supplied by DiscoveRX) media to the required concentrations. 5 μL of test compound or vehicle solution was added to each well and incubated for 60 minutes at 37° C., 5% CO2 in a humidified incubator. 5 μL of increasing concentrations of anandamide was added to each well followed by a 90 minute incubation at 37° C., 5% CO2 in a humidified incubator. 55 μL of detection reagent (as supplied by DiscoveRX) was then added, followed by a further 90 minute incubation at room temperature in the dark. Chemiluminescence, reported in relative light units (RLU—a dimensionless value, standardised as a % of maximum stimulation with anandamide), was measured on a standard luminescence plate reader.
Data were plotted as % of maximal stimulation (Emax) caused by agonist versus the logarithm of concentration of agonist, in the presence or absence of a fixed concentration of test compound (modulator) or vehicle. For example, stimulation in the presence of agonist alone will give a value for stimulation expressed in RLU, which can be expressed as a range from 0% (at lowest agonist concentration, e.g., 1 nM) to 100% (at the highest agonist concentration, e.g., 10 μM). […]

in vitro = conditions: both, microsomes, pH 7.4
Protocol: Human and Rat Liver Microsomal Stability Assay
The metabolic stability of the compounds of the Formula (I) was measured by determination of the rate of compound disappearance when incubated in the presence of both human and rat liver microsomes. Liver microsomes are prepared from the endoplasmic reticulum of hepatocytes and are the primary source of the most important enzymes (cytochrome P450) involved in drug metabolism. Study of drug stability in the presence of liver microsomes is accepted as a valuable model permitting rapid prediction of in vivo drug stability.
Human and rat liver microsomes were obtained from a commercial source. Test compounds (3 μM) were incubated with pooled liver microsomes (male and female). Samples were incubated for a 45 minute period and removed at 5 time points and test compounds were analysed by LC-MS/MS.
The final incubation volume was 25 μL. A control incubation was included for each compound tested, where 0.1 M phosphate buffer pH 7.4 was added instead of NADPH. The control compounds testosterone and 7-hydroxycoumarin were included in each experiment and all incubations were performed singularly for each compound.
Each compound was incubated for 0, 5, 15, 30, and 45 minutes. The control (minus NADPH) was incubated for 45 minutes only. The reactions were stopped by the addition of 50 μL methanol containing internal standard at the appropriate time points. The incubation plates were centrifuged at 2500 rpm for 20 minutes at 4° C. to precipitate the protein.
Following protein precipitation, the sample supernatants were combined in cassettes of up to 4 compounds and analysed using standard LC-MS/MS conditions.
From a plot of the natural logarithm of the peak area ratio (i.e., the ratio of compound peak area:internal standard peak area) against time, the gradient of the line was determined. Subsequently, half-life and intrinsic clearance were calculated using the equations below: Eliminated Rate Constant (k)=(−Gradient).

CB1 receptor [2] = target: T2, CB1 receptor (Mus musculus, UniProt P47746); conditions: equilibrium binding assay; cited from earlier work
CB1 receptor [3] = target: T2, CB1 receptor; parameters: from the CB1 receptor in mouse brain membranes; host or cells: mouse brain membranes; conditions: mouse brain membranes; cited from earlier work
[4] = tested on: C57BL/6J mice; FAAH knockout mice; conditions: cited from earlier work
CCI model = conditions: antagonized by rimonabant; cited from earlier work

T2 sequence (P47746 whole entry): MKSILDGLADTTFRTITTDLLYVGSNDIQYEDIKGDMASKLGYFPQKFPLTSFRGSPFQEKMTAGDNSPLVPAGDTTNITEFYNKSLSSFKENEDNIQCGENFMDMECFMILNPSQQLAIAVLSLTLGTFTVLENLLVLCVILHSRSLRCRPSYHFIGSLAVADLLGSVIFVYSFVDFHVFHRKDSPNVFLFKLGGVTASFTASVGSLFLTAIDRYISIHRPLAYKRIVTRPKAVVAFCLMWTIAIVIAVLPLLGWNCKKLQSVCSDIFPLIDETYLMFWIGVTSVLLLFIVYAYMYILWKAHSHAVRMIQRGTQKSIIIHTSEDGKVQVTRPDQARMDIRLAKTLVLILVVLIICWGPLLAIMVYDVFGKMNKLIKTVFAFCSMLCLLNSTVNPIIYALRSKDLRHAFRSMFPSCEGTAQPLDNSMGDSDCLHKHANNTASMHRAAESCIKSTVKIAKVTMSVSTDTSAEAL
T1 sequence (P21554 whole entry): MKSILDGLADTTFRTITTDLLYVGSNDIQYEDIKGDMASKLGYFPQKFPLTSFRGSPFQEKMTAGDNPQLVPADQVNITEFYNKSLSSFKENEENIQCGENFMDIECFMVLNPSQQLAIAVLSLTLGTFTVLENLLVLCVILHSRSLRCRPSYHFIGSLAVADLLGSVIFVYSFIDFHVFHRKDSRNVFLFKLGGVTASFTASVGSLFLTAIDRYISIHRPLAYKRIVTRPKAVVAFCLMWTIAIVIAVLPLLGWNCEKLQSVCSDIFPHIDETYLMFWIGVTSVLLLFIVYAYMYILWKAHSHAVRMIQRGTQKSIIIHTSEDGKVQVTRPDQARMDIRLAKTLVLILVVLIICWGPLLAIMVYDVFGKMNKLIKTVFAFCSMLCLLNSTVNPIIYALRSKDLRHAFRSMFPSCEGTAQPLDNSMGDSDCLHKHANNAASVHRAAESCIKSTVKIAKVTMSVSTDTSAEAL

In the case of `Cc1ccc2c(C(C[N+](=O)[O-])c3ccccc3)c(-c3ccccc3)[nH]c2c1` (stereo not drawn) [ABD999], the “Potency % Enhancement 1000 nM” value [1] is reported as 76.8%, the half-life at 3 μM (in vitro; human) is reported as 47.7 min and the microsomal CLint at 3 μM (in vitro; human) is reported as 29.1 µL/min/mg.
For `O=C(O)CC(c1ccccc1)c1c(-c2ccccc2)[nH]c2ccc(Cl)cc12` (stereo not drawn) [ABD1003], the “Potency % Enhancement 1000 nM” value [1] was 0%.
With `CS(=O)(=O)NCC(c1ccccc1)c1c(-c2ccccc2)[nH]c2ccccc12` (stereo not drawn) [ABD1009] the “Potency % Enhancement 1000 nM” value [1] was 0%.
With `NCC(c1ccccc1)c1c(-c2ccccc2)[nH]c2ccccc12` (stereo not drawn) [ABD1009a] the “Potency % Enhancement 1000 nM” value [1] was 0%.
In the case of `NC(=O)NCC(c1ccccc1)c1c(-c2ccccc2)[nH]c2ccccc12` (stereo not drawn) [ABD1011], the “Potency % Enhancement 1000 nM” value [1] is reported as 0%.
In the case of `c1ccc(-c2[nH]c3ccccc3c2-n2nnnc2-c2ccccc2)cc1` [ABD1077], the “Potency % Enhancement 1000 nM” value [1] is reported as 0%.
With `c1ccc(-c2[nH]c3ccccc3c2-c2nnnn2-c2ccccc2)cc1` [ABD1078] the “Potency % Enhancement 1000 nM” value [1] was 0%.
For `CS(=O)(=O)NC(c1ccccc1)c1c(-c2ccccc2)[nH]c2ccccc12` (stereo not drawn) [ABD1097], the “Potency % Enhancement 1000 nM” value [1] was 0%.
In the case of `O=S(=O)(NC(c1ccccc1)c1c(-c2ccccc2)[nH]c2ccccc12)c1ccccc1` (stereo not drawn) [ABD1098], the “Potency % Enhancement 1000 nM” value [1] is reported as 0%.
For `N#CC(C#N)C(c1ccccc1)c1c(-c2ccccc2)[nH]c2ccccc12` (stereo not drawn) [ABD1100, 2-(Phenyl(2-phenyl-1H-indol-3-yl)methyl)malononitrile], the “Potency % Enhancement 300 nM” value [1] was 0% and the “Potency % Enhancement 1000 nM” value [1] was 19.6%.
For `O=C(O)CC(c1ccccc1)c1c(-c2ccccc2)[nH]c2ccccc12` (stereo not drawn) [ABD1101a], the “Potency % Enhancement 1000 nM” value [1] was 0%.
In the case of `N#CCC(c1ccccc1)c1c(-c2ccccc2)[nH]c2ccccc12` (stereo not drawn) [ABD1102, 3-Phenyl-3-(2-phenyl-1H-indol-3-yl)propanenitrile], the “Potency % Enhancement 300 nM” value [1] is reported as 0% and the “Potency % Enhancement 1000 nM” value [1] is reported as 21.9%.
In the case of `NC(=O)CC(c1ccccc1)c1c(-c2ccccc2)[nH]c2ccccc12` (stereo not drawn) [ABD1105], the “Potency % Enhancement 1000 nM” value [1] is reported as 0%.
For `CNC(=O)CC(c1ccccc1)c1c(-c2ccccc2)[nH]c2ccccc12` (stereo not drawn) [ABD1106], the “Potency % Enhancement 1000 nM” value [1] was 0%.
In the case of `c1ccc(-c2[nH]c3ccccc3c2C(Cn2ccnn2)c2ccccc2)cc1` (stereo not drawn) [ABD1117], the “Potency % Enhancement 1000 nM” value [1] is reported as 0%.
For `NNC(=O)CC(c1ccccc1)c1c(-c2ccccc2)[nH]c2ccccc12` (stereo not drawn) [ABD1131], the “Potency % Enhancement 1000 nM” value [1] was 0%.
In the case of `Cc1ccc2c(C(CC#N)c3ccccc3)c(-c3ccccc3)[nH]c2c1` (stereo not drawn) [ABD1132, 3-(6-Methyl-2-phenyl-1H-indol-3-yl)-3-phenylpropanenitrile], the “Potency % Enhancement 300 nM” value [1] is reported as 21.6% and the “Potency % Enhancement 1000 nM” value [1] is reported as 80.6%.
For `Cc1ccc2c(C(c3ccccc3)C(C#N)C#N)c(-c3ccccc3)[nH]c2c1` (stereo not drawn) [ABD1133, 2-((6-Methyl-2-phenyl-1H-indol-3-yl)(phenyl)methyl)malononitrile], the “Potency % Enhancement 300 nM” value [1] was 68.7% and the “Potency % Enhancement 1000 nM” value [1] was 40.4%.
With `FC(F)(F)CC(c1ccccc1)c1c(-c2ccccc2)[nH]c2ccccc12` (stereo not drawn) [ABD1137, 2-Phenyl-3-(3,3,3-trifluoro-1-phenylpropyl)-1H-indole] the “Potency % Enhancement 300 nM” value [1] was 0% and the “Potency % Enhancement 1000 nM” value [1] was 20.7%.
With `O=C(C(c1ccccc1)c1c(-c2ccccc2)[nH]c2ccccc12)C(F)(F)F` (stereo not drawn) [ABD1139, 1,1,1-Trifluoro-3-phenyl-3-(2-phenyl-1H-indol-3-yl)propan-2-one] the “Potency % Enhancement 300 nM” value [1] was 0% and the “Potency % Enhancement 1000 nM” value [1] was 18.6%.
For `Cc1ccc2c(C(CC(F)(F)F)c3ccccc3)c(-c3ccccc3)[nH]c2c1` (stereo not drawn) [ABD1145, 6-Methyl-2-phenyl-3-(3,3,3-trifluoro-1-phenylpropyl)-1H-indole], the “Potency % Enhancement 100 nM” value [1] was 45.5% and the “Potency % Enhancement 1000 nM” value [1] was 61.9%.
For `Cc1ccc2c(C(C(=O)C(F)(F)F)c3ccccc3)c(-c3ccccc3)[nH]c2c1` (stereo not drawn) [ABD1146, 1,1,1-Trifluoro-3-(6-methyl-2-phenyl-1H-indol-3-yl)-3-phenylpropan-2-one], the “Potency % Enhancement 100 nM” value [1] was 34.0% and the “Potency % Enhancement 1000 nM” value [1] was 81.0%.
With `Cc1ccc2c(C(c3cccs3)C(C#N)C#N)c(-c3ccccc3)[nH]c2c1` (stereo not drawn) [ABD1155, 2-((6-Methyl-2-phenyl-1H-indol-3-yl)(thiophen-2-yl)methyl)malononitrile] the “Potency % Enhancement 1000 nM” value [1] was 67.4%.
For `Cc1ccc2c(C(CC(F)(F)F)c3cccs3)c(-c3ccccc3)[nH]c2c1` (stereo not drawn) [ABD1187, 6-Methyl-2-phenyl-3-(3,3,3-trifluoro-1-(thiophen-2-yl)propyl)-1H-indole], the microsomal CLint at 3 μM (in vitro; human) was 5 µL/min/mg.
In the case of `CCc1c(C(=O)NCCc2ccc(N3CCCCC3)cc2)[nH]c2ccc(Cl)cc12` [ORG27569], the “binding of CP55940” value (CB1 receptor [2]) is given as “increase”, the “binding of radiolabelled inverse agonist SR141716A” value (CB1 receptor [2]) is given as “decrease” and the “dissociation of radiolabelled CB1 receptor agonist CP55940 from the CB1 receptor” value (from here on “dissociation”) (CB1 receptor [3]) is given as “slowing of the dissociation”.
For `CCc1c(C(=O)NCCc2ccc(N(C)C)cc2)[nH]c2ccc(F)cc12` [ORG27759], the “binding of CP55940” value (CB1 receptor [2]) is given as “increase”, the “binding of radiolabelled inverse agonist SR141716A” value (CB1 receptor [2]) is given as “decrease” and the “dissociation” value (CB1 receptor [3]) is given as “slowing of the dissociation”.
In the case of `CCc1c(C(=O)NC2CCN(Cc3ccccc3)C2)[nH]c2ccc(Cl)cc12` (stereo not drawn) [ORG29647], the “binding of CP55940” value (CB1 receptor [2]) is listed as “increase”, the “binding of radiolabelled inverse agonist SR141716A” value (CB1 receptor [2]) is listed as “decrease” and the “dissociation” value (CB1 receptor [3]) is listed as “slowing of the dissociation”.
In the case of `Cc1ccc2c(C(C[N+](=O)[O-])c3cccs3)c(-c3ccccc3)[nH]c2c1` (stereo not drawn) [ZCZ011], the “Potency % Enhancement 100 nM” value [1] is listed as 56.8%, the “Potency % Enhancement 1000 nM” value [1] is listed as 126.0% and the “enhancement of the pharmacological effects of CP55,940” value ([4]; 40 mg/kg, C57BL/6J mice) is listed as “significantly enhanced”. For the same compound, the “enhancement of the pharmacological effects of AEA” value ([4]; 40 mg/kg, fatty acid amide hydrolase (FAAH) knockout mice) was “significantly enhanced”, the “potency of AEA in the drug discrimination assay” value ([4]; 40 mg/kg) was “significantly increasing” and the “catalepsy, thermal antinociception, hypothermia or changes in locomotor activity” value ([4]; given alone) was “did not produce”. The half-life at 3 μM (in vitro; human) was 36.7 min, the microsomal CLint at 3 μM (in vitro; human) was 37.8 µL/min/mg and the half-life at 3 μM (in vitro; rat) was 8.1 min. The microsomal CLint at 3 μM (in vitro; rat) was 127 µL/min/mg and the “allodynia induced by mechanical (von Frey filaments) or cold (acetone) stimulation” value (CCI model) was “significantly reversed”.

— US10377711B2, “Cannabinoid type 1 receptor modulators” (priority 2014, dated 2019)
